Data reported in patent US12472219B2, “Encapsulated cannabinoid formulations for transdermal delivery” (Nutrae, LLC, priority 2018, dated 2025).

Assay: Encapsulation efficiency by ultracentrifugation and HPLC

Structure (SMILES)	encapsulation efficiency of CBD (% EE) (active ingredient 1% (w/w), oleic acid and polysorbate 20 preparation)	encapsulation efficiency, THC compared with CBD (tested concentrations 6% and 10% (w/w), oleic acid and polysorbate 20)
C=C(C)[C@@H]1CCC(C)=C[C@H]1c1c(O)cc(CCCCC)cc1O [CBD, cannabidiol]	80.11%	–
CCCCCc1cc(O)c2c(c1)OC(C)(C)[C@@H]1CCC(C)=C[C@@H]21 [THC, Δ9-tetrahydrocannabinol]	–	generally higher for THC over CBD
